Data taken from publication PMC5388927 (Virology, 2008).

Columns and labels:
WNV VLP = assay type: cell-based, West Nile virus; conditions: 1.5 μM
DENV-1 VLP = assay type: cell-based, dengue virus (DENV-1); conditions: 1.5 μM
WEEV (strain Cova 746) = assay type: cell-based, Western equine encephalitis virus
[1] = tested on: VSV (New Jersey serotype); assay type: cell-based, vesicular stomatitis virus
poliovirus = conditions: cited from earlier work
SARS-CoV = conditions: cited from earlier work
[2] = tested on: herpes simplex virus (type 1); conditions: cited from earlier work
vaccinia virus = conditions: cited from earlier work
HIV-1 = conditions: cited from earlier work
in vitro = conditions: African green monkey

**Q.** Which “reduction of luciferase signals” value (WNV VLP) does the source give for `O[C@H]1[C@H]2c3cc4c(cc3CN3CCC(=C[C@@H]1O)[C@H]23)OCO4` [Lycorine] here?
**A.** 1400 fold

**Q.** What about the “reduction of luciferase signals” value (DENV-1 VLP) of the same compound?
**A.** 1200 fold

**Q.** And the “suppression of viral titer” value (WEEV (strain Cova 746))?
**A.** suppressed titers of neither WEEV nor VSV

**Q.** And the “suppression of viral titer” value [1]?
**A.** suppressed titers of neither WEEV nor VSV

**Q.** What about the antiviral activity (poliovirus) of the same compound?
**A.** inhibit

**Q.** What about the “suppression of viral translation” value (poliovirus) of the same compound?
**A.** ~90%

**Q.** What about the antiviral activity (SARS-CoV) of the same compound?
**A.** inhibit

**Q.** What about the antiviral activity [2] of the same compound?
**A.** inhibit

**Q.** And the antiviral activity (vaccinia virus)?
**A.** inhibit

**Q.** What about the antiviral activity (HIV-1) of the same compound?
**A.** does not inhibit

**Q.** And the viability at 1.5 µM (in vitro)?
**A.** > 90%
